Reference: US7759345B2, “Antitumoral derivatives of ET-743” (priority 2001, dated 2010)
Read-outs that look alike come from different tables or passages of the source.

How the values were obtained:
IGROV-1 = experiment: Inhibition of cells growth by colorimetric assay (SRB), IGROV-1; format: cell-based; settings: for GI50 / CC50: Homo sapiens, IGROV-1, 48 h
Method in brief: (§1)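 Compound in DMSO/EtOH/PBS vehicle was applied at 10 to 10^−8 μg/ml to attached cells (5×10^3/well, 18 h) for 48 h. Cells were then fixed with cold TCA and stained with 0.4% SRB in 1% acetic acid.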

K-562 = experiment: Inhibition of cells growth by colorimetric assay (SRB), K-562; format: cell-based; settings: for GI50 / LC50 (50% cell killing): Homo sapiens, K562, 48 h
Method in brief: as §1

DU-145 = experiment: Inhibition of cells growth by colorimetric assay (SRB), DU-145; format: cell-based; settings: for GI50 / CC50: Homo sapiens, DU-145, 48 h
Method in brief: as §1

A-549 = experiment: Inhibition of cells growth by colorimetric assay (SRB), A-549; format: cell-based; settings: for GI50 / LC50 (concentration for 50% cell killing): Homo sapiens, A549, 48 h
Method in brief: as §1

LoVo-Dox = experiment: Inhibition of cells growth by colorimetric assay (SRB), LoVo-Dox; format: cell-based; settings: for GI50 / CC50: Homo sapiens, 48 h
Method in brief: as §1

HMEC1 = experiment: Inhibition of cells growth by colorimetric assay (SRB), HMEC1; format: cell-based; settings: for GI50 / LC50: Homo sapiens, HMEC-1, 48 h
Method in brief: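 SRB read-out at 490 nm after 48 h drug exposure (10 to 10^−8 μg/ml) of cells plated at 5×10^3/well and attached 18 h in drug-free RPMI 1640/10% FBS. Triplicate means give GI, TGI (cytostatic) and LC (cytotoxic).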

LoVo = experiment: Inhibition of cells growth by colorimetric assay (SRB), LoVo; format: cell-based; settings: for GI50 / LC50 (concentration for 50% cell killing): Homo sapiens, LoVo, 48 h
Method in brief: as §1

SK-OV-3 = experiment: Inhibition of cells growth by colorimetric assay (SRB), SK-OV-3; format: cell-based; settings: for GI50 / LC50: Homo sapiens, SK-OV-3, 48 h
Method in brief: as §1

IGROV-ET = experiment: Inhibition of cells growth by colorimetric assay (SRB), IGROV-ET; format: cell-based; settings: for GI50 / CC50: Homo sapiens, 48 h
Method in brief: as §1

Heart = experiment: In vitro toxicity, Heart
From the text: (§2) Toxicity was asssessed by the methods reported in Toxicology in Vitro, 15 (2001) 571-577, J. Luber Narod et al.: “Evaluation of the use of in vitro methodolodies as tools for screening new compounds for potential in vivo toxicity”.

Liver = experiment: In vitro toxicity, Liver
From the text: as §2

Kidney = experiment: In vitro toxicity, Kidney
From the text: as §2

SK-MEL-28 = experiment: Inhibition of cells growth by colorimetric assay (SRB), SK-MEL-28; format: cell-based; settings: for GI50 / CC50: Homo sapiens, SK-MEL-28, 48 h
Method in brief: as §1

PANC-1 = experiment: Inhibition of cells growth by colorimetric assay (SRB), PANC-1; format: cell-based; settings: for GI50 / LC50 (concentration for 50% net cell kill): Homo sapiens, PANC-1, 48 h
Method in brief: as §1

Skeletal = experiment: In vitro toxicity, Skeletal
From the text: as §2

LNCaP = experiment: Inhibition of cells growth by colorimetric assay (SRB), LNCaP; format: cell-based; settings: for GI50 / CC50: Homo sapiens, LNCaP, 48 h
Method in brief: as §1

HT-29 = experiment: Inhibition of cells growth by colorimetric assay (SRB), HT-29; format: cell-based; settings: for GI50 / LC50 (concentration for 50% cell killing): Homo sapiens, HT-29, 48 h
Method in brief: as §1

SK-BR-3 = experiment: Inhibition of cells growth by colorimetric assay (SRB), SK-BR-3; format: cell-based; settings: for GI50 / CC50: Homo sapiens, SK-BR-3, 48 h
Method in brief: as §1

Myelo = experiment: In vitro toxicity, Myelo
From the text: as §2

COc1cc2c(cc1OC(=O)C(F)(F)C(F)(F)C(F)(F)F)CCN[C@]21CS[C@@H]2c3c(OC(C)=O)c(C)c4c(c3[C@H](COC1=O)N1C2[C@H]2c3c(cc(C)c(OC)c3O)C[C@@H]([C@@H]1O)N2C)OCO4 (stereo partly shown) [Compound 74]
GI50 (IGROV-1; read-out: GI50 IGROV): 0.237 nM
CC50 (IGROV-1; read-out: LC50 IGROV, IGROV, SRB, 48 hours exposure): 0.911 nM
TGI IGROV (IGROV-1; IGROV, SRB, 48 hours exposure): 4.65E-10
GI50 (K-562; read-out: GI50 K-562): 0.0526 nM
LC50 (50% cell killing) (K-562; read-out: LC50 K-562, K-562, SRB, 48 hours exposure): 0.661 nM
TGI K-562 (K-562; K-562, SRB, 48 hours exposure): 2.10E-10
TGI DU-145 (DU-145; DU-145, SRB, 48 hours exposure): 7.61E-10
GI50 (DU-145; read-out: GI50 DU-145): 0.366 nM
CC50 (DU-145; read-out: LC50 DU-145, DU-145, SRB, 48 hours exposure): 2790 nM
TGI A-549 (A-549; A-549, SRB, 48 hours exposure): 9.04E-10
GI50 (A-549; read-out: GI50 A-549): 0.399 nM
LC50 (concentration for 50% cell killing) (A-549; read-out: LC50 A-549, A-549, SRB, 48 hours exposure): 6.38 nM
GI50 (LoVo-Dox; read-out: GI50 LOVO-DOX): 6.31 nM
CC50 (LoVo-Dox; read-out: LC50 LOVO-DOX, LOVO-DOX, SRB, 48 hours exposure): 359 nM
TGI LOVO-DOX (LoVo-Dox; LOVO-DOX, SRB, 48 hours exposure): 6.33E-08
TGI HMEC-1 (HMEC1; HMEC-1, SRB, 48 hours exposure): 1.45E-08
GI50 (HMEC1; read-out: GI50 HMEC-1): 0.598 nM
LC50 (HMEC1; read-out: LC50 HMEC-1, HMEC-1, SRB, 48 hours exposure): 4700 nM
GI50 (LoVo; read-out: GI50 LOVO): 0.369 nM
LC50 (concentration for 50% cell killing) (LoVo; read-out: LC50 LOVO, LOVO, SRB, 48 hours exposure): 11 nM
TGI LOVO (LoVo; LOVO, SRB, 48 hours exposure): 1.16E-09
GI50 (SK-OV-3; read-out: GI50 SK-OV3): 0.248 nM
LC50 (SK-OV-3; read-out: LC50 SK-OV3, SK-OV3, SRB, 48 hours exposure): 1.11 nM
TGI SK-OV3 (SK-OV-3; SK-OV3, SRB, 48 hours exposure): 4.76E-10
GI50 (IGROV-ET; read-out: GI50 IGROV-ET): 1.76 nM
CC50 (IGROV-ET; read-out: LC50 IGROV-ET, IGROV-ET, SRB, 48 hours exposure): 19.7 nM
TGI IGROV-ET (IGROV-ET; IGROV-ET, SRB, 48 hours exposure): 4.69E-09
Toxicity Data Heart (Heart): 2.86E-08
Toxicity Data Liver (Liver): 3.07E-08
Toxicity Data Kidney (Kidney): 3.05E-08
GI50 (SK-MEL-28; read-out: GI50 MEL-28): 0.275 nM
CC50 (SK-MEL-28; read-out: LC50 MEL-28, MEL-28, SRB, 48 hours exposure): 0.994 nM
TGI MEL-28 (SK-MEL-28; MEL-28, SRB, 48 hours exposure): 5.22E-10
GI50 (PANC-1; read-out: GI50 PANC-1): 0.313 nM
LC50 (concentration for 50% net cell kill) (PANC-1; read-out: LC50 PANC-1, PANC-1, SRB, 48 hours exposure): 2.55 nM
TGI PANC-1 (PANC-1; PANC-1, SRB, 48 hours exposure): 6.77E-10
Toxicity Data Skeletal (Skeletal): 8.30E-10
GI50 (LNCaP; read-out: GI50 LNCAP, LNCAP, SRB, 48 hours exposure): 0.129 nM
CC50 (LNCaP; read-out: LC50 LNCAP, LNCAP, SRB, 48 hours exposure): 0.564 nM
TGI LNCAP (LNCaP; LNCAP, SRB, 48 hours exposure): 2.69E-10
TGI HT-29 (HT-29; HT-29, SRB, 48 hours exposure): 8.35E-10
GI50 (HT-29; read-out: GI50 HT-29): 0.354 nM
LC50 (concentration for 50% cell killing) (HT-29; read-out: LC50 HT-29, HT-29, SRB, 48 hours exposure): 10400 nM
GI50 (SK-BR-3; read-out: GI50 SK-BR3): 0.275 nM
CC50 (SK-BR-3; read-out: LC50 SK-BR3, SK-BR3, SRB, 48 hours exposure): 4.18 nM
TGI SK-BR3 (SK-BR-3; SK-BR3, SRB, 48 hours exposure): 7.64E-10
Toxicity Data Myelo (Myelo): 3.30E-08

COc1cc2c(cc1O)CCN[C@]21CS[C@@H]2c3c(OC(=O)C(F)(F)C(F)(F)C(F)(F)F)c(C)c4c(c3[C@H](COC1=O)N1C2[C@H]2c3c(cc(C)c(OC)c3O)C[C@@H]([C@@H]1O)N2C)OCO4 (stereo partly shown) [Compound 167]
GI50 (IGROV-1; read-out: IGROV GI50): 6.46 nM
CC50 (IGROV-1; read-out: IGROV LC50, SRB assay, 48 hours exposure): 89.2 nM
IGROV TGI (IGROV-1; SRB assay, 48 hours exposure): 2.49E-08
GI50 (K-562; read-out: K-562 GI50): 7 nM
LC50 (50% cell killing) (K-562; read-out: K-562 LC50, SRB assay, 48 hours exposure): 71.7 nM
K-562 TGI (K-562; SRB assay, 48 hours exposure): 9.64E-09
GI50 (DU-145; read-out: DU-145 GI50): 48.8 nM
CC50 (DU-145; read-out: DU-145 LC50, SRB assay, 48 hours exposure): 10900 nM
DU-145 TGI (DU-145; SRB assay, 48 hours exposure): 1.01E-07
GI50 (A-549; read-out: A-549 GI50): 28.3 nM
LC50 (concentration for 50% cell killing) (A-549; read-out: A-549 LC50, SRB assay, 48 hours exposure): 482 nM
A-549 TGI (A-549; SRB assay, 48 hours exposure): 6.54E-08
GI50 (LoVo-Dox; read-out: LOVO-DOX GI50): 416 nM
CC50 (LoVo-Dox; read-out: LOVO-DOX LC50, SRB assay, 48 hours exposure): 10900 nM
LOVO-DOX TGI (LoVo-Dox; SRB assay, 48 hours exposure): 1.58E-06
GI50 (HMEC1; read-out: HMEC-1 GI50): 51.5 nM
LC50 (HMEC1; read-out: HMEC-1 LC50, SRB assay, 48 hours exposure): 10900 nM
HMEC-1 TGI (HMEC1; SRB assay, 48 hours exposure): 3.49E-07
GI50 (LoVo; read-out: LOVO GI50): 33.6 nM
LC50 (concentration for 50% cell killing) (LoVo; read-out: LOVO LC50, SRB assay, 48 hours exposure): 190 nM
LOVO TGI (LoVo; SRB assay, 48 hours exposure): 6.74E-08
GI50 (SK-OV-3; read-out: SK-OV3 GI50): 40.2 nM
LC50 (SK-OV-3; read-out: SK-OV3 LC50, SRB assay, 48 hours exposure): 10900 nM
SK-OV3 TGI (SK-OV-3; SRB assay, 48 hours exposure): 1.48E-07
GI50 (IGROV-ET; read-out: IGROV-ET GI50): 77.6 nM
CC50 (IGROV-ET; read-out: IGROV-ET LC50, SRB assay, 48 hours exposure): 5240 nM
IGROV-ET TGI (IGROV-ET; SRB assay, 48 hours exposure): 9.05E-07
Toxicity Data Heart (Heart): 4.28E-07
Toxicity Data Liver (Liver): 4.83E-07
Toxicity Data Kidney (Kidney): 2.77E-07
GI50 (SK-MEL-28; read-out: MEL-28 GI50): 23.8 nM
CC50 (SK-MEL-28; read-out: MEL-28 LC50, SRB assay, 48 hours exposure): 107 nM
MEL-28 TGI (SK-MEL-28; SRB assay, 48 hours exposure): 5.06E-08
GI50 (PANC-1; read-out: PANC-1 GI50): 46.5 nM
LC50 (concentration for 50% net cell kill) (PANC-1; read-out: PANC-1 LC50, SRB assay, 48 hours exposure): 10900 nM
PANC-1 TGI (PANC-1; SRB assay, 48 hours exposure): 1.09E-07
Toxicity Data Skeletal (Skeletal): 1.09E-07
GI50 (LNCaP; read-out: LNCAP GI50, SRB assay, 48 hours exposure): 19.7 nM
CC50 (LNCaP; read-out: LNCAP LC50, SRB assay, 48 hours exposure): 73.6 nM
LNCAP TGI (LNCaP; SRB assay, 48 hours exposure): 3.80E-08
GI50 (HT-29; read-out: HT-29 GI50): 28.9 nM
LC50 (concentration for 50% cell killing) (HT-29; read-out: HT-29 LC50, SRB assay, 48 hours exposure): 10900 nM
HT-29 TGI (HT-29; SRB assay, 48 hours exposure): 1.51E-07
GI50 (SK-BR-3; read-out: SK-BR3 GI50): 17.6 nM
CC50 (SK-BR-3; read-out: SK-BR3 LC50, SRB assay, 48 hours exposure): 238 nM
SK-BR3 TGI (SK-BR-3; SRB assay, 48 hours exposure): 5.19E-08
Toxicity Data Myelo (Myelo): 1.01E-06
